Series [1] has as its system foreskin fibroblast cells. The series can be described thus: MTT cell viability assay. It counts as cell-based. The settings on record: 48 h, normal human fibroblast cells, mean ± SD, read-out: Antiproliferative activity IC50, Fibroblast. How it is done: (§1) Human cancer cells (SiHa, HepG2, MCF7, Cal27) were obtained from ATCC, while foreskin fibroblast cells were generated at the Manipal School of Life Sciences. Cells were cultured in DMEM with 10% FBS, maintained in an Eppendorf CellXpert® C170 incubator at 37 °C with 5% CO2, and medium was renewed every 48–72 h.
(§2) Cancer cells (1 × 10^5 cells/mL) and fibroblast cells (5 × 10^4 cells/mL) were seeded in 96-well plates. Test compounds, dissolved in DMSO and diluted in DMEM with 10% FBS, were treated for 48 h. MTT (5 mg/mL) was added, and after 4 h, absorbance was measured at 570 and 630 nm using a VARIOSKAN™ 3001 multimode multiplate reader.
For orientation: Formazan colour is commonly taken as a measure of viable cells.

For series [2], the system named is SiHa cells. Nature of the series: Cell cycle analysis (propidium iodide flow cytometry). Format: cell-based, human. The settings on record: IC50 concentration, 48 h. From the text: After trypsinization, cells were fixed in 70% ethanol, treated with RNase-A, stained with propidium iodide, and analyzed using the Partec CyFlow Space with FloMax software (Germany).

In series [3] the test system is SiHa cells. Nature of the series: Apoptosis assay (Annexin V/propidium iodide flow cytometry). Format: cell-based, human. The following applies: 48 h. How it is done:
SiHa cells were cultured at a density of 1 × 10^6 cells/mL in 10 cm plates. Upon reaching 80% confluency, cells were subjected to 48 h treatment with test compounds (IC50 and IC70). Following two PBS washes, trypsinization, and suspension in Annexin V binding buffer, cells were incubated, stained with propidium iodide, and analyzed for apoptosis using Apoptosis Detection Kit I and Partec CyFlow Space with FloMax software (Germany).

Series [4] deals with SiHa cells. Nature of the series: In vitro cell migration (scratch) assay. It counts as cell-based, human. The settings on record: IC50 concentration, 48 h post-wounding, control group 19.64%. How it is done: SiHa cells were cultured in 6-well plates using DMEM with 10% FBS until they formed a monolayer. A scratch was done on the cell monolayer by using a sterile 200 μL pipette tip. Subsequently, the cells were treated with the PA at IC50 concentration, and the extent of cell migration was assessed by analyzing the wound area at 0th, 24th, and 48th h time intervals using ImageJ software (Wayne Rasband, USA).

The test system of series [5] is intracellular dNTP levels in SiHa cells. The series can be described thus: dNTP pool analysis (HPLC). Format: cell-based, human. The settings on record: IC50 concentration. As to the method: Harvested duplicate samples (1 million cells each) were washed with ice-cold PBS, and an extraction solution (6.5: 3.5 of acetonitrile and water mixture with 100 mM formic acid) was added. After incubation and centrifugation, the solution was lyophilized, reconstituted in 100 µL HPLC buffer A, and analyzed on a Waters Symmetry C18 column using HPLC. A stepwise gradient of Buffer A and B was employed, with detection at 260 and 280 nm, as mentioned by Crona et al., in 2016 [34]. Quantification was based on peak area measurements in the chromatogram, providing relative quantification of the analyzed components.

Series [6] deals with HDAC (SiHa cell nuclear extracts). Nature of the series: In vitro fluorescent HDAC assay. The settings on record: substrate Boc-Lys(Ac)-AMC, read-out: HDAC inhibitory activity IC50. It counts as biochemical, human. As to the method: In a black 96-well plate, HDAC assay buffer, varied concentrations of test compounds, and SiHa cell nucleus extract were combined and incubated for 30 min. The enzymatic reaction commenced with the addition of the fluorescent substrate, Boc-Lys(Ac)-AMC, and lasted for 2 h at 37 °C. Reaction termination involved adding a developer, followed by an additional incubation at room temperature for 10–15 min. Fluorescence intensity was assessed using a VARIOSKAN™ 3001 multimode multiplate reader at an excitation wavelength of 354 nm and emission wavelength of 450 nm.

Another series concerns SiHa. The series can be described thus: MTT cell viability assay. It counts as cell-based, human. The following applies: 48 h, mean ± SD, read-out: Antiproliferative activity IC50, SiHa. As to the method: as §1, §2
For a further series, the system named is MCF7. Nature of the series: MTT cell viability assay. Format: cell-based, human. The following applies: mean ± SD, read-out: Antiproliferative activity IC50, MCF7. As to the method: as §1, §2
A further series deals with HepG2. The series can be described thus: MTT cell viability assay. The settings on record: mean ± SD, read-out: Antiproliferative activity IC50, HepG2. It counts as cell-based, human. How it is done: as §1, §2
The test system of a further series is Cal27. Nature of the series: MTT cell viability assay. The following applies: mean ± SD, read-out: Antiproliferative activity IC50, Cal27. It counts as cell-based, human. As to the method:
as §1, §2

The test system of series [7] is Acetyl-Histone H3 in SiHa cells. The series can be described thus: Western blot of acetylated histone H3. Format: cell-based, human. The settings on record: PA 10 and 20 µM, 48 h. As to the method: SiHa cells (2 × 10^5 cells/well) were cultured in 6-well plates, treated with varied concentrations of test compounds for 48 h, and lysed in RIPA buffer. After centrifugation, protein content was quantified using Bradford assay. Protein extracts were subjected to SDS-PAGE and were transferred to the nitrocellulose membrane. Following blocking, membranes were probed with CST antibodies (Acetyl-Histone H3, B-Actin) at 1:3000 dilution and secondary anti-rabbit antibodies (1:5000 dilution). iBright™ CL1500 Imaging System captured the images.
On the technique in general: Immunoblotting shows a protein as a band on a membrane.

Series [8] relates to SiHa cells. Nature of the series: Anchorage-dependent colony formation assay. It counts as cell-based, human. The following applies: IC50 concentration of each compound. As to the method: SiHa cells (500 cells/well) were seeded in 6 cm plates. After 24 h, cells were treated with the IC50 concentration of test compounds and incubated for 21 days with media changes every three days. On day 21, colonies were stained with 0.4% crystal violet for 10 min, washed twice with PBS, and then counted.

A short description of series [9]: Partition coefficient 1-octanol/water. It counts as physicochemical. The following applies: 1-octanol/water (MOPS buffer), pH 7.4; read-out: log (Kpart7.4), partition coefficient. As to the method:
The partition coefficient (Kpart) of PA was determined in a 1-octanol/water system. 1-octanol was added to MOPS buffer containing PA (IC50), and OD at 276 nm was measured before and after each addition. Kpart values were calculated..

Series [10] deals with SiHa cells. Nature of the series: Suppression of cytotoxicity by iron supplementation (FAC co-administration, MTT). Format: cell-based, human. The settings on record: PA at IC50 with FAC 25, 50, 100 µM, MTT after 48 h.
Method: To confirm the intracellular Fe^3+ chelation ability of PA, three different concentrations (25, 50, 100 µM) of ferric ammonium citrate (FAC) with PA (IC50) were co-administered in SiHa cells, and the cell viability was assessed using MTT after 48 h.
Series [11] relates to RR (3H-thymidine incorporation into DNA of SiHa cells). Nature of the series: Inhibition of DNA synthesis (3H-thymidine incorporation) as RR activity. It counts as cell-based. The settings on record: Homo sapiens, 48 h treatment. How it is done:
SiHa cells (5 × 10^6) were treated with varying test compound concentrations for 48 h. Following incubation, cells were pulsed with 5 nM ^3H-thymidine for 30 min at 37 °C. After collection, washing, and total DNA extraction, radioactivity was quantified as counts per min (CPM) using a Tri-carb 2900TR liquid scintillation (Perkin Elmer, USA).
On the technique in general: Dividing cells build labelled thymidine or BrdU into new DNA.

As usually defined, the IC50 is the point on the concentration scale where inhibition reaches its midpoint.

Like-named read-outs stand apart in the source and are kept apart here.

For `O=C(CCCCCCC(=O)Nc1cc2cccnc2c2ncccc12)NO` [PA, N^1-hydroxy-N^8-(1,10-phenanthrolin-5-yl)octanediamide], the IC50 in series [1] is more than 100 µM; in [6] it was 10.8 µM; in the series on SiHa (Homo sapiens, SiHa), 16.4 ± 4.71 µM; in the series with MCF7 (Homo sapiens, MCF7, 48 h), more than 100 µM; in the series on HepG2 (Homo sapiens, HepG2, 48 h), more than 100 µM; in the series on Cal27 (Homo sapiens, CAL-27, 48 h), 51 ± 3.08 µM. In [11], this compound displayed an IC50 of 9.34 µM. Besides, the cell cycle progression entry in the series on SiHa cells [2] is “increased the cell population at the S phase and a concentration-dependent elevation in the G2/M phase”. Moreover, the early apoptosis in the series on SiHa cells [3] (IC50 concentration) turned out to be 3.63%; with SiHa cells [3] (IC70 concentration), 2.58%. In the series on SiHa cells [4], this compound came in with a wound area percentage of 56.33%. Also, in series [5], the “intracellular dNTP levels” value is on record as “marked decrease in intracellular dNTP levels”. Moreover, the “acetylated Histone H3 levels (western blot)” value in [7] is recorded as “dose-dependent increase in acetylated Histone H3 levels”. Further, in the series with SiHa cells [8], the “clonogenic efficiency (colony formation)” value is 1.99%. For the same compound, in series [9], the logD is 0.82. Moreover, in the series with SiHa cells [10], the “effect of ferric ammonium citrate (FAC) co-administration on cytotoxicity” value is listed as “FAC reduced PA cell toxicity in a concentration-dependent manner”.

In the case of `c1cnc2c(c1)ccc1cccnc12` [1,10-Phenanthroline], the IC50 in [1] was more than 100 µM; with SiHa (Homo sapiens, SiHa), 42.9 ± 2.53 µM; with MCF7 (Homo sapiens, MCF7, 48 h), 48.8 ± 12 µM; in the series on HepG2 (Homo sapiens, HepG2, 48 h), more than 100 µM; in the series on Cal27 (Homo sapiens, CAL-27, 48 h), 53 ± 2.18 µM.

Regarding `CC(=O)N(O)CCCCCNC(=O)CCC(=O)N(O)CCCCCNC(=O)CCC(=O)N(O)CCCCCN` [DFO, Deferoxamine], the IC50 in series [1] was more than 100 µM; with SiHa (Homo sapiens, SiHa) it was 71.5 ± 5.02 µM; in the series on MCF7 (Homo sapiens, MCF7, 48 h), more than 100 µM; in the series with HepG2 (Homo sapiens, HepG2, 48 h), more than 100 µM; with Cal27 (Homo sapiens, CAL-27, 48 h), 46 ± 3.07 µM. The “clonogenic efficiency (colony formation)” value in the series on SiHa cells [8] turned out to be 44.63%.

Regarding `NC(=O)NO` [HU, Hydroxyurea], the IC50 (in series [1]; with SiHa; in the series with MCF7 (48 h); with HepG2 (48 h); in the series on Cal27 (48 h)) was more than 100 µM in each case.

The record behind these values is article PMC11087398, “Evaluation of 1,10-phenanthroline-based hydroxamate derivative as dual histone deacetylases/ribonucleotide reductase inhibitor with antitumor activities” (DARU Journal of Pharmaceutical Sciences, 2024).
